Test results published in PubChem BioAssay (NCI).
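How tested: cells in 96-well plates exposed to compound for 48 hours at five concentrations. Abbreviation: GI50, concentration required for 50% inhibition of growth. The concentration for full growth arrest is given as TGI.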

Key:
Assay in all cases: DTP human tumour cell line panel, 48 h
[1] = tested on: SK-MEL-5 melanoma
[2] = tested on: HOP-92 NSCLC
[3] = tested on: HL-60(TB) leukemia
[4] = tested on: M14 melanoma
[5] = tested on: RPMI-8226 leukemia
[6] = tested on: HCT-116 colon
[7] = tested on: ACHN renal
[8] = tested on: IGROV1 ovarian
[9] = tested on: OVCAR-3 ovarian
[10] = tested on: A498 renal
[11] = tested on: OVCAR-8 ovarian
[12] = tested on: T-47D breast
[13] = tested on: HCT-15 colon
[14] = tested on: SF-539 CNS
[15] = tested on: NCI/ADR-RES ovarian
[16] = tested on: MCF7 breast
[17] = tested on: NCI-H522 lung
[18] = tested on: UO-31 renal
[19] = tested on: A549 NSCLC
[20] = tested on: HS 578T breast
[21] = tested on: SF-295 CNS
[22] = tested on: MDA-MB-231 breast
[23] = tested on: BT-549 breast
[24] = tested on: PC-3 prostate
[25] = tested on: HT29 colon
[26] = tested on: OVCAR-5 ovarian
[27] = tested on: COLO 205 colon
[28] = tested on: SW-620 colon
[29] = tested on: OVCAR-4 ovarian
[30] = tested on: MALME-3M melanoma
[31] = tested on: TK-10 renal
[32] = tested on: KM12 colon
[33] = tested on: SK-MEL-28 melanoma
[34] = tested on: UACC-257 melanoma
[35] = tested on: LOX IMVI melanoma
[36] = tested on: SNB-19 CNS
[37] = tested on: NCI-H226 lung
[38] = tested on: NCI-H460 lung
[39] = tested on: EKVX NSCLC
[40] = tested on: NCI-H23 lung
[41] = tested on: DU-145 prostate
[42] = tested on: U251 CNS
[43] = tested on: K-562 leukemia
[44] = tested on: SF-268 CNS
[45] = tested on: HOP-62 NSCLC
[46] = tested on: MOLT-4 leukemia
[47] = tested on: HCC-2998 colon
[48] = tested on: SNB-75 CNS
[49] = tested on: RXF 393 renal
[50] = tested on: CCRF-CEM leukemia
[51] = tested on: SK-MEL-2 melanoma
[52] = tested on: MDA-MB-435
[53] = tested on: UACC-62 melanoma
[54] = tested on: 786-0 renal
[55] = tested on: CAKI-1 renal
[56] = tested on: SK-OV-3 ovarian
[57] = tested on: SN12C renal

Compound: O=S1(=O)C(c2ccccc2)=C(O)c2ccccc21
- TGI [1]: > 100 µM
- TGI [2]: > 100 µM
- TGI [3]: > 100 µM
- TGI [4]: > 100 µM
- TGI [5]: > 100 µM
- TGI [6]: > 100 µM
- TGI [7]: > 100 µM
- TGI [8]: > 100 µM
- TGI [9]: > 100 µM
- TGI [10]: > 100 µM
- TGI [11]: > 100 µM
- TGI [12]: > 100 µM
- TGI [13]: > 100 µM
- TGI [14]: > 100 µM
- TGI [15]: > 100 µM
- TGI [16]: > 100 µM
- TGI [17]: > 100 µM
- TGI [18]: > 100 µM
- TGI [19]: > 100 µM
- TGI [20]: > 100 µM
- TGI [21]: > 100 µM
- TGI [22]: > 100 µM
- TGI [23]: > 100 µM
- TGI [24]: > 100 µM
- TGI [25]: > 100 µM
- TGI [26]: > 100 µM
- TGI [27]: > 100 µM
- TGI [28]: > 100 µM
- TGI [29]: > 100 µM
- TGI [30]: > 100 µM
- TGI [31]: > 100 µM
- TGI [32]: > 100 µM
- TGI [33]: > 100 µM
- TGI [34]: > 100 µM
- TGI [35]: > 100 µM
- TGI [36]: > 100 µM
- TGI [37]: > 100 µM
- TGI [38]: > 100 µM
- TGI [39]: > 100 µM
- TGI [40]: > 100 µM
- TGI [41]: > 100 µM
- TGI [42]: > 100 µM
- TGI [43]: > 100 µM
- TGI [44]: > 100 µM
- TGI [45]: > 100 µM
- TGI [46]: > 100 µM
- TGI [47]: > 100 µM
- TGI [48]: > 100 µM
- TGI [49]: > 100 µM
- TGI [50]: > 100 µM
- TGI [51]: > 100 µM
- TGI [52]: > 100 µM
- TGI [53]: > 100 µM
- TGI [54]: > 100 µM

Compound: Cc1cc(NC(=O)c2cnc(N3CCN(CCOCCOCCOCCOCCC(=O)N[C@H](C(=O)N4C[C@H](O)C[C@H]4C(=O)N[C@@H](C)c4ccc(-c5scnc5C)cc4)C(C)(C)C)CC3)cn2)c2ncccc2c1
- GI50 [1]: 2.36 µM
- TGI [1]: 5.72 µM
- GI50 [2]: 2.3 µM
- TGI [2]: 9.37 µM
- GI50 [3]: 2.3 µM
- TGI [3]: 5.71 µM
- GI50 [4]: 2.19 µM
- TGI [4]: 4.94 µM
- GI50 [6]: 1.79 µM
- TGI [6]: 3.38 µM
- GI50 [7]: 12 µM
- TGI [7]: > 100 µM
- GI50 [8]: 2.39 µM
- TGI [8]: 8.17 µM
- GI50 [9]: 2.13 µM
- TGI [9]: 4.45 µM
- GI50 [55]: 9.33 µM
- TGI [55]: > 100 µM
- GI50 [10]: 5.06 µM
- TGI [10]: 29 µM
- GI50 [11]: 3.38 µM
- TGI [11]: > 100 µM
- GI50 [12]: 3.03 µM
- TGI [12]: 17.9 µM
- GI50 [56]: 8.5 µM
- TGI [56]: > 100 µM
- GI50 [13]: 6.39 µM
- TGI [13]: > 100 µM
- GI50 [14]: 2.12 µM
- TGI [14]: 4.68 µM
- GI50 [15]: > 100 µM
- TGI [15]: > 100 µM
- GI50 [16]: 3.14 µM
- TGI [16]: > 100 µM
- GI50 [17]: 1.96 µM
- TGI [17]: 6.16 µM
- GI50 [18]: 12.7 µM
- TGI [18]: > 100 µM
- GI50 [19]: 6.19 µM
- TGI [19]: > 100 µM
- GI50 [20]: 2.59 µM
- TGI [20]: 9.17 µM
- GI50 [21]: 2.23 µM
- TGI [21]: 6.31 µM
- GI50 [22]: 1.98 µM
- TGI [22]: 3.98 µM
- GI50 [23]: 1.83 µM
- TGI [23]: 3.69 µM
- GI50 [24]: 2.85 µM
- TGI [24]: 10.4 µM
- GI50 [25]: 2.54 µM
- TGI [25]: 7.63 µM
- GI50 [26]: 14.9 µM
- TGI [26]: 50.8 µM
- GI50 [27]: 5.11 µM
- TGI [27]: > 100 µM
- GI50 [28]: 2.38 µM
- TGI [28]: 5.65 µM
- GI50 [29]: 4.49 µM
- TGI [29]: 25 µM
- GI50 [30]: 1.76 µM
- TGI [30]: 3.68 µM
- GI50 [31]: 10.7 µM
- TGI [31]: 53.4 µM
- GI50 [33]: 2.54 µM
- TGI [33]: 6.7 µM
- GI50 [34]: 2.81 µM
- TGI [34]: 7.97 µM
- GI50 [35]: 1.84 µM
- TGI [35]: 3.39 µM
- GI50 [36]: 3.59 µM
- TGI [36]: 14.7 µM
- GI50 [37]: 28.7 µM
- TGI [37]: > 100 µM
- GI50 [38]: 3.37 µM
- TGI [38]: 11 µM
- GI50 [39]: 4.9 µM
- TGI [39]: > 100 µM
- GI50 [57]: 2.52 µM
- TGI [57]: 7.64 µM
- GI50 [40]: 3.57 µM
- TGI [40]: 15.8 µM
- GI50 [41]: 6.16 µM
- TGI [41]: > 100 µM
- GI50 [42]: 2.74 µM
- TGI [42]: 7.92 µM
- GI50 [43]: 3.1 µM
- TGI [43]: > 100 µM
- GI50 [44]: 3.02 µM
- TGI [44]: 18.3 µM
- GI50 [46]: 3.12 µM
- TGI [46]: 9.67 µM
- GI50 [47]: 1.75 µM
- TGI [47]: 3.25 µM
- GI50 [48]: 2.1 µM
- TGI [48]: 15 µM
- GI50 [49]: 1.73 µM
- TGI [49]: 3.71 µM
- GI50 [50]: 3.37 µM
- TGI [50]: > 100 µM
- GI50 [51]: 3.17 µM
- TGI [51]: 11 µM
- GI50 [52]: 2.25 µM
- TGI [52]: 5.38 µM
- GI50 [53]: 1.71 µM
- TGI [53]: 3.36 µM
- GI50 [54]: 4.61 µM
- TGI [54]: > 100 µM
